The source of these data is US20260373248A1, “DEGRADABLE PEPTOIDS” (Medici Therapeutics, Inc., priority 2023, published 2026).

For one data set, the system named is luciferase. Put plainly: Luciferase expression after local (intramuscular or subcutaneous) administration of mRNA. Conditions: mRNA 0.01 mpk, 6 hours; for IM Flux: intramuscular; for SC Flux: subcutaneous. Type of data set: in vivo. The method, boiled down:
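Female Balb/c mice (6-8 weeks) received fLuc mRNA in aminolipidated peptoid Nutshells at 0.01 mpk subcutaneously or intramuscularly, or 0.1 mpk intratumorally. At 6 hours, anesthetized mice were given D-luciferin IP and imaged 10 minutes later; harvested organs were also imaged and total photon flux quantified in regions of interest.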

The subject of another data set is firefly luciferase. The experiment in a line: In vivo firefly luciferase expression after intravenous injection of fLuc mRNA delivery vehicles (IVIS imaging). Details: species or system female Balb/c mice. The settings on record: for Total Flux: mice, 2.5 ug fLuc mRNA intravenously, 6 hours post-injection; for Total Flux (luciferase expression): fLuc mRNA, intravenous, Balb/c mice. The gist of the method:
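Female Balb/c mice (6-8 weeks) given 2.5 ug fLuc mRNA in Nutshells IV. At 6 hours, IP D-luciferin (30 mg/mL, 10 μL/g) under isoflurane; IVIS imaging 10 minutes later, then harvested organs imaged ex vivo. Read-out: total photon flux in regions of interest.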

Data set [1] is described as follows: Delivery vehicle size and polydispersity by dynamic light scattering. It is filed as physicochemical. The gist of the method:
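LNPs made by microfluidic mixing of ethanolic peptoid/DSPC/cholesterol/DMG-PEG2000 (20:1.79:7.16:1.84 by weight) with mRNA in 10 mM citrate pH 5.0 at 1:3 by volume, then dialyzed overnight at 4 °C against tris-sucrose pH 7.4. Size and PDI read by dynamic light scattering in PBS.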

A further data set relates to mRNA. Put plainly: mRNA encapsulation (modified Quant-iT RiboGreen assay). Type of data set: physicochemical. The settings on record: for mean percent encapsulation of RNA: RiboGreen, without vs with Triton X-100; for % Encapsulation: mRNA. The method, boiled down: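 Peptoid nanoparticles were incubated with Triton X-100 for 10 min to release entrapped mRNA, then mixed with RiboGreen reagent and read by fluorescence (ex 485 nm/em 530 nm). Percent encapsulation was derived from the ratio of fluorescence without versus with Triton X-100.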

The test system of the next data set is hEPO. Put plainly: Quantification of hEPO in serum after IV injection of mRNA (Human EPO ELISA). Type of data set: in vivo. The settings on record: Balb/c mice, 2.5 μg mRNA IV, serum after 6 hours. The method, boiled down: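 Balb/c mice received 2.5 μg mRNA encoding human EPO by IV injection; serum was collected after 6 hours. hEPO was measured by sandwich ELISA (biotin-conjugate, streptavidin-HRP, TMB, A450) against kit standards (mIU/mL) and an external standard (ng/mL), with values interpolated and corrected for dilution.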

Data set [2] is described as follows: Peptoid quantity remaining in liver by HPLC-TOF mass spectrometry. It is filed as in vivo. The settings on record: liver homogenate. The method, boiled down: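 Whole liver weighed; 20 mg tissue bead-homogenized in IPA/MeOH (8/2) with internal standard, centrifuged, supernatant run on BEH C8 HPLC-TOF MS. Peptoid concentration derived from linear calibration curve (0.2-50 μg/g) prepared in spiked untreated liver.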

Where [3] appears, read: DLS in PBS, peptoid:DSPC:Cholesterol:DMG-PEG2000 weight ratio 20:1.79:7.16:1.84, mRNA.

SMILES strings stand for the structures. Non-standard residues stand in square brackets, D forms with d. Residues, ends and D or L forms follow the SMILES beside them. *: point of attachment. Gly(N-(3-decanoyloxypropyl)) = CCCCCCCCCC(=O)OCCCNCC(=O)O; N(3-lauroyloxypropyl)Gly = CCCCCCCCCCCC(=O)OCCCNCC(=O)O; N(2-decanoyloxyethyl)Gly = CCCCCCCCCC(=O)OCCNCC(=O)O; Gly(N-(CH2)3O-octanoyl) = CCCCCCCC(=O)OCCCNCC(=O)O; N(3-imidazol-1-ylpropyl)Gly = O=C(O)CNCCCn1ccnc1; Gly(N-3-morpholinopropyl) = O=C(O)CNCCCN1CCOCC1; N(2-ethylhexyl)Gly = CCCCC(CC)CNCC(=O)O; N(CH(CH2OH)2)Gly = O=C(O)CNC(CO)CO; NDecylGly = CCCCCCCCCCNCC(=O)O; NHexGly = CCCCCCNCC(=O)O; For = O=C*

Regarding `CCCCCCCCCCCC(=O)OCCCN(CC(=O)N(CC(=O)N(CCCCCC)CC(=O)N(CCCOC(=O)CCCCCCCCCCC)CC(=O)N(CC(=O)N(CCCCCC)CC(N)=O)CC(CC)CCCC)CC(CC)CCCC)C(=O)CN(C=O)CCCN1CCOCC1` (centres unmarked) [Compound 70] (For-[Gly(N-3-morpholinopropyl)][N(3-lauroyloxypropyl)Gly][N(2-ethylhexyl)Gly][NHexGly][N(3-lauroyloxypropyl)Gly][N(2-ethylhexyl)Gly][NHexGly]-NH2), in the data set with luciferase, the “IM Flux” value was determined as 4.46E+06 p/s and the “SC Flux” value stood at 2.02E+08 p/s. The “Total Flux” value in the data set on firefly luciferase turned out to be 1.04E+09 p/s. Also, in data set [1] (setting [3]), the PDI was 0.082 and the “Particle Size” value came out at 101.3 nm. Moreover, in the data set on mRNA, the “mean percent encapsulation of RNA” value came out at 77.2%. The same molecule showed a hEPO with hEPO of 201 ng/mL. Further, in data set [2], the “% of injected dose remaining in liver” value is 8.06%.

Take `CCCCCCCCCCCC(=O)OCCCN(CC(=O)N(CC(=O)N(CC(=O)N(CCCOC(=O)CCCCCCCCCCC)CC(=O)N(CC(N)=O)CC(CC)CCCC)CC(CC)CCCC)CC(CC)CCCC)C(=O)CN(CC(CC)CCCC)C(=O)CNC(CO)CO` (centres unmarked) [Compound 6] (H-[N(CH(CH2OH)2)Gly][N(2-ethylhexyl)Gly][N(3-lauroyloxypropyl)Gly][N(2-ethylhexyl)Gly][N(2-ethylhexyl)Gly][N(3-lauroyloxypropyl)Gly][N(2-ethylhexyl)Gly]-NH2): in the data set on luciferase, the “IM Flux” value stood at 1.22E+08 p/s and the “SC Flux” value is on record as 1.14E+08 p/s. In addition, the “Total Flux” value with firefly luciferase is on record as 1.67E+09 p/s. Besides, in data set [1] (setting [3]), the PDI came to 0.125 and the “Particle Size” value is 83.9 nm. Moreover, in the data set with mRNA, the “mean percent encapsulation of RNA” value was determined as 77.1%. Further, in the data set with hEPO, the hEPO was found to be 245 ng/mL. Besides, the “% of injected dose remaining in liver” value in data set [2] was found to be 13.73%.

For the molecule `CCCCCCCCCCCC(=O)OCCN(CC(=O)N(CCOC(=O)CCCCCCCCCCC)CC(=O)N(CC(=O)N(CCOC(=O)CCCCCCCCCCC)CC(=O)N(CCOC(=O)CCCCCCCCCCC)CC(=O)N(CC(N)=O)CC(CC)CCCC)CC(CC)CCCC)C(=O)CN(C=O)CCCN1CCOCC1` (centres unmarked) [Compound 65], in the data set with luciferase, the “IM Flux” value is 8.99E+08 p/s and the “SC Flux” value is on record as 2.00E+08 p/s. In addition, the “Total Flux” value in the data set on firefly luciferase is given as 8.68E+08 p/s. In addition, in data set [1] (setting [3]), the PDI was 0.248 and the “Particle Size” value worked out at 91.4 nm. Moreover, in the data set with mRNA, the “mean percent encapsulation of RNA” value was 39.1%. Also, the hEPO with hEPO was found to be 77.7 ng/mL. Also, the “% of injected dose remaining in liver” value in data set [2] was 14.67%.

As for `CCCCCCCCCC(=O)OCCN(CC(=O)N(CCOC(=O)CCCCCCCCC)CC(=O)N(CC(=O)N(CCOC(=O)CCCCCCCCC)CC(=O)N(CCOC(=O)CCCCCCCCC)CC(=O)N(CC(N)=O)CC(CC)CCCC)CC(CC)CCCC)C(=O)CNCCCn1ccnc1` (centres unmarked) [Compound 79] (H-[N(3-imidazol-1-ylpropyl)Gly][N(2-decanoyloxyethyl)Gly][N(2-decanoyloxyethyl)Gly][N(2-ethylhexyl)Gly][N(2-decanoyloxyethyl)Gly][N(2-decanoyloxyethyl)Gly][N(2-ethylhexyl)Gly]-NH2), in the data set on luciferase, the “IM Flux” value turned out to be 1.31E+08 p/s and the “SC Flux” value was found to be 1.59E+08 p/s. Also, in the data set with firefly luciferase, the “Total Flux” value was found to be 1.60E+09 p/s. In data set [1] (setting [3]), the PDI worked out at 0.108 and the “Particle Size” value is listed as 61.0 nm. For the same molecule, the “mean percent encapsulation of RNA” value with mRNA was determined as 97.5%. In the data set with hEPO, this molecule registered a hEPO of 320 ng/mL. For the same molecule, the “% of injected dose remaining in liver” value in data set [2] is 19.72%.

For the molecule `CCCCCCCC(=O)OCCCN(CC(=O)N(CC(=O)N(CC(=O)N(CCCOC(=O)CCCCCCC)CC(=O)N(CC(N)=O)CC(CC)CCCC)CC(CC)CCCC)CC(CC)CCCC)C(=O)CN(CC(CC)CCCC)C(=O)CNC(CO)CO` (centres unmarked) [Compound 4] (H-[N(CH(CH2OH)2)Gly][N(2-ethylhexyl)Gly][Gly(N-(CH2)3O-octanoyl)][N(2-ethylhexyl)Gly][N(2-ethylhexyl)Gly][Gly(N-(CH2)3O-octanoyl)][N(2-ethylhexyl)Gly]-NH2), in the data set on luciferase, the “IM Flux” value turned out to be 5.26E+08 p/s and the “SC Flux” value turned out to be 5.11E+08 p/s. The “Total Flux” value in the data set with firefly luciferase is on record as 4.33E+09 p/s. Besides, in data set [1] (setting [3]), the PDI is reported as 0.113 and the “Particle Size” value worked out at 74.4 nm. Also, in the data set on mRNA, the “mean percent encapsulation of RNA” value was 94.6%. In addition, the hEPO in the data set with hEPO was 291 ng/mL. Also, the “% of injected dose remaining in liver” value in data set [2] was found to be 5.98%.

Regarding `CCCCCCCCCCN(CC(=O)N(CC(=O)N(CCCOC(=O)CCCCCCCCC)CC(N)=O)CC(CC)CCCC)C(=O)CN(CC(CC)CCCC)C(=O)CN(CCCOC(=O)CCCCCCCCC)C(=O)CN(CC(CC)CCCC)C(=O)CNC(CO)CO` (centres unmarked) [Compound 58] (H-[N(CH(CH2OH)2)Gly][N(2-ethylhexyl)Gly][Gly(N-(3-decanoyloxypropyl))][N(2-ethylhexyl)Gly][NDecylGly][N(2-ethylhexyl)Gly][Gly(N-(3-decanoyloxypropyl))]-NH2), in the data set with luciferase, the “IM Flux” value turned out to be 5.53E+08 p/s. In addition, the “SC Flux” value in the data set with luciferase is given as 1.99E+07 p/s. The “Total Flux (luciferase expression)” value in the data set on firefly luciferase (formulation recipe D22) was 3.94E+09 p/s; in the data set with firefly luciferase (formulation recipe O5) it was 5.84E+08 p/s; in the data set with firefly luciferase (formulation recipe O8), 1.02E+09 p/s. Moreover, the “Total Flux” value in the data set on firefly luciferase is 3.94E+09 p/s. Moreover, the PDI in data set [1] (setting [3]) is on record as 0.159. Further, the “Particle Size” value is recorded as 70.4 nm in data set [1] (setting [3]), 70.4 nm in data set [1] (formulation recipe D22), 56.3 nm in data set [1] (formulation recipe O5) and 57.5 nm in data set [1] (formulation recipe O8). For the same molecule, the “mean percent encapsulation of RNA” value with mRNA is given as 78.1%. The entries for the “% Encapsulation” value with mRNA (formulation recipe D22), in the data set with mRNA (formulation recipe O5) and with mRNA (formulation recipe O8) were 78.1%, 92.8% and 92.9%, respectively. The hEPO in the data set with hEPO turned out to be 386 ng/mL. For the same molecule, the “% of injected dose remaining in liver” value in data set [2] is listed as −1.37%.

As to `CCCCCCCCCCCC(=O)OCCCN(CC(=O)N(CC(=O)N(CCCN1CCOCC1)CC(=O)N(CC(=O)N(CCCOC(=O)CCCCCCCCCCC)CC(=O)N(CC(N)=O)CC(CC)CCCC)CC(CC)CCCC)CC(CC)CCCC)C(=O)CN(C=O)CC(CC)CCCC` (centres unmarked) [Compound 80] (For-[N(2-ethylhexyl)Gly][N(3-lauroyloxypropyl)Gly][N(2-ethylhexyl)Gly][Gly(N-3-morpholinopropyl)][N(2-ethylhexyl)Gly][N(3-lauroyloxypropyl)Gly][N(2-ethylhexyl)Gly]-NH2), the “IM Flux” value in the data set with luciferase is 2.20E+08 p/s. Moreover, in the data set with luciferase, the “SC Flux” value was determined as 4.16E+08 p/s. The entries for the “Total Flux (luciferase expression)” value with firefly luciferase (formulation recipe D22), with firefly luciferase (formulation recipe O1) and in the data set on firefly luciferase (formulation recipe O5) were 3.74E+09 p/s, 2.74E+09 p/s and 2.71E+09 p/s, respectively. In addition, the “Total Flux” value with firefly luciferase is 3.74E+09 p/s. Further, the PDI in data set [1] (setting [3]) worked out at 0.109. Moreover, the “Particle Size” value in data set [1] (setting [3]) was 78.1 nm; in data set [1] (formulation recipe D22) it was 78.1 nm; in data set [1] (formulation recipe O1), 68.2 nm; in data set [1] (formulation recipe O5) it was 68.5 nm. The “mean percent encapsulation of RNA” value with mRNA came out at 65.7%. Further, the “% Encapsulation” value in the data set with mRNA (formulation recipe D22) was found to be 65.7%; in the data set on mRNA (formulation recipe O1), 80.5%; in the data set with mRNA (formulation recipe O5), 82.6%. Further, in the data set with hEPO, the hEPO is 481 ng/mL. For the same molecule, in data set [2], the “% of injected dose remaining in liver” value is given as 13.58%.
